Measured values from ChEMBL document CHEMBL3286290, “In vitro screening of pentamidine analogs against bacterial and fungal strains” (Bioorg Med Chem Lett, 2014).

Tests used:
[1] = Cytotoxicity against human A549 cells assessed as cell viability at 200 ug/ml after 48 hrs by MTT assay; assay type: cell-based; settings: read-out: Activity
[2] = Cytotoxicity against human A549 cells assessed as cell viability at 100 ug/ml after 48 hrs by MTT assay; assay type: cell-based; settings: read-out: Activity
[3] = system: Staphylococcus aureus; assay: Antibacterial activity against penicillin, erythromycin, clindamycin, ciprofloxacin, methicillin-resistant Staphylococcus aureus 19K/11 assessed as growth inhibition by M7-A6 method; assay type: functional
[4] = system: Candida albicans; assay: Antifungal activity against Candida albicans ATCC 2091 assessed as growth inhibition by M7-A6 method; assay type: functional
[5] = system: Staphylococcus aureus; assay: Antibacterial activity against Staphylococcus aureus ATCC 6538P assessed as growth inhibition by M7-A6 method; assay type: functional
[6] = Cytotoxicity against human HeLa cells assessed as cell viability at 200 ug/ml after 72 hrs by MTT assay; assay type: cell-based; settings: read-out: Activity
[7] = Cytotoxicity against human A549 cells assessed as cell viability at 10 ug/ml after 48 hrs by MTT assay; assay type: cell-based; settings: read-out: Activity
[8] = system: Staphylococcus aureus; assay: Antibacterial activity against penicillin, erythromycin, amikacin, clindamycin, ciprofloxacin, methicillin-resistant Staphylococcus aureus 573/12 assessed as growth inhibition by M7-A6 method; assay type: functional
[9] = system: HeLa; assay: Cytotoxicity against human HeLa cells assessed as inhibition of cell viability after 72 hrs by MTT assay; assay type: cell-based
[10] = Cytotoxicity against human A549 cells assessed as cell viability at 10 ug/ml after 72 hrs by MTT assay; assay type: cell-based; settings: read-out: Activity
[11] = system: Micrococcus luteus; assay: Antibacterial activity against Micrococcus luteus ATCC 10240 assessed as growth inhibition by M7-A6 method; assay type: functional
[12] = system: Candida albicans; assay: Antifungal activity against Candida albicans ATCC 10231 assessed as growth inhibition by M7-A6 method; assay type: functional
[13] = system: Pseudomonas aeruginosa; assay: Antibacterial activity against Pseudomonas aeruginosa ATCC 9027 assessed as growth inhibition by M7-A6 method; assay type: functional
[14] = system: Candida parapsilosis; assay: Antifungal activity against Candida parapsilosis ATCC 22019 assessed as growth inhibition by M7-A6 method; assay type: functional; settings: Lodderomyces parapsilosis
[15] = system: A549; assay: Cytotoxicity against human A549 cells assessed as inhibition of cell viability after 48 hrs by MTT assay; assay type: cell-based; settings: A549, 48 h
[16] = system: Escherichia coli; assay: Antibacterial activity against Escherichia coli ATCC 8739 assessed as growth inhibition by M7-A6 method; assay type: functional
[17] = system: HeLa; assay: Cytotoxicity against human HeLa cells assessed as inhibition of cell viability after 48 hrs by MTT assay; assay type: cell-based
[18] = Cytotoxicity against human A549 cells assessed as cell viability at 50 ug/ml after 48 hrs by MTT assay; assay type: cell-based; settings: read-out: Activity
[19] = system: Staphylococcus aureus; assay: Antibacterial activity against erythromycin, amikacin, clindamycin, ciprofloxacin, methicillin-resistant Staphylococcus aureus 15K/11 assessed as growth inhibition by M7-A6 method; assay type: functional
[20] = system: Aspergillus brasiliensis; assay: Antifungal activity against Aspergillus brasiliensis ATCC 16404 assessed as growth inhibition by M7-A6 method; assay type: functional
[21] = Cytotoxicity against human HeLa cells assessed as cell viability at 50 ug/ml after 72 hrs by MTT assay; assay type: cell-based; settings: read-out: Activity
[22] = Cytotoxicity against human HeLa cells assessed as cell viability at 10 ug/ml after 48 hrs by MTT assay; assay type: cell-based; settings: read-out: Activity
[23] = system: Pseudomonas aeruginosa; assay: Antibacterial activity against Pseudomonas aeruginosa ATCC 15442 assessed as growth inhibition by M7-A6 method; assay type: functional
[24] = system: Micrococcus luteus; assay: Antibacterial activity against Micrococcus luteus ATCC 9341 assessed as growth inhibition by M7-A6 method; assay type: functional
[25] = system: Bacillus cereus; assay: Antibacterial activity against Bacillus cereus ATCC 11778 assessed as growth inhibition by M7-A6 method; assay type: functional
[26] = Cytotoxicity against human A549 cells assessed as cell viability at 50 ug/ml after 72 hrs by MTT assay; assay type: cell-based; settings: read-out: Activity
[27] = Cytotoxicity against human HeLa cells assessed as cell viability at 200 ug/ml after 48 hrs by MTT assay; assay type: cell-based; settings: read-out: Activity
[28] = system: Staphylococcus aureus; assay: Antibacterial activity against penicillin, erythromycin, amikacin, clindamycin, ciprofloxacin, methicillin-resistant Staphylococcus aureus 572/12 assessed as growth inhibition by M7-A6 method; assay type: functional
[29] = Cytotoxicity against human HeLa cells assessed as cell viability at 100 ug/ml after 48 hrs by MTT assay; assay type: cell-based; settings: read-out: Activity
[30] = Cytotoxicity against human HeLa cells assessed as cell viability at 10 ug/ml after 72 hrs by MTT assay; assay type: cell-based; settings: read-out: Activity
[31] = system: Saccharomyces cerevisiae; assay: Antifungal activity against Saccharomyces cerevisiae ATCC 9763 assessed as growth inhibition by M7-A6 method; assay type: functional
[32] = system: Bacillus subtilis; assay: Antibacterial activity against Bacillus subtilis ATCC 6633 assessed as growth inhibition by M7-A6 method; assay type: functional
[33] = Cytotoxicity against human A549 cells assessed as cell viability at 100 ug/ml after 72 hrs by MTT assay; assay type: cell-based; settings: read-out: Activity
[34] = system: Staphylococcus aureus; assay: Antibacterial activity against penicillin, erythromycin, amikacin, clindamycin, ciprofloxacin, methicillin-resistant Staphylococcus aureus 495/11 assessed as growth inhibition by M7-A6 method; assay type: functional
[35] = Cytotoxicity against human A549 cells assessed as cell viability at 200 ug/ml after 72 hrs by MTT assay; assay type: cell-based; settings: read-out: Activity
[36] = Cytotoxicity against human HeLa cells assessed as cell viability at 100 ug/ml after 72 hrs by MTT assay; assay type: cell-based; settings: read-out: Activity
[37] = system: A549; assay: Cytotoxicity against human A549 cells assessed as inhibition of cell viability after 72 hrs by MTT assay; assay type: cell-based; settings: A549, 72 h
[38] = system: Staphylococcus aureus; assay: Antibacterial activity against Staphylococcus aureus ATCC 6538 assessed as growth inhibition by M7-A6 method; assay type: functional
[39] = Cytotoxicity against human HeLa cells assessed as cell viability at 50 ug/ml after 48 hrs by MTT assay; assay type: cell-based; settings: read-out: Activity

Row | Structure (SMILES) | viability at 48 h, 200 ug/ml [1] | viability at 48 h, 100 ug/ml [2] | MIC [3] | MIC [4] | MIC [5] | viability at 72 h, 200 ug/ml [6] | viability at 48 h, 10 ug/ml [7] | MIC [8] | IC50 [9] | viability at 72 h, 10 ug/ml [10] | MIC [11] | MIC [12] | MIC [13] | MIC [14] | IC50 [15] | MIC [16] | IC50 [17] | viability at 48 h, 50 ug/ml [18] | MIC [19] | MIC [20] | other results
1 | CCCCNC(=N)c1ccc(OCCSCCOc2ccc(C(=N)NCCCC)cc2)cc1.Cl | 59.1% | 62.3% | 110 µM | 3.6 µM | 27 µM | 18.5% | 89.3% | 14 µM | > 100 µg/mL | 67.6% | 3.6 µM | 3.6 µM | > 1810 µM | 3.6 µM | > 100 µg/mL | 110 µM | > 100 µg/mL | 68.8% | 230 µM | 14 µM | viability at 72 h, 50 ug/ml [21]: 88.3%; viability at 48 h, 10 ug/ml [22]: 91.8%; MIC [23]: > 1810 µM; MIC [24]: 2.6 µM; MIC [25]: 450 µM; viability at 72 h, 50 ug/ml [26]: 50.5%; viability at 48 h, 200 ug/ml [27]: 25.8%; MIC [28]: 230 µM; viability at 48 h, 100 ug/ml [29]: 63.7%; viability at 72 h, 10 ug/ml [30]: 99%; MIC [31]: 27 µM; MIC [32]: 14 µM; viability at 72 h, 100 ug/ml [33]: 48.5%; MIC [34]: 230 µM; viability at 72 h, 200 ug/ml [35]: 42.2%; viability at 72 h, 100 ug/ml [36]: 57.2%; IC50 [37]: ≥ 50 µg/mL; MIC [38]: 14 µM; viability at 48 h, 50 ug/ml [39]: 83.4%
2 | Cl.N=C(NC1CCCCC1)c1ccc(OCCSCCOc2ccc(C(=N)NC3CCCCC3)cc2)cc1 | 61.4% | 63.9% | 12 µM | 3.2 µM | 3.2 µM | 12.3% | 84.6% | 12 µM | > 100 µg/mL | 69.6% | 0.81 µM | 3.2 µM | > 1630 µM | 3.2 µM | > 100 µg/mL | 100 µM | > 100 µg/mL | 74.9% | 100 µM | 3.2 µM | viability at 72 h, 50 ug/ml [21]: 96.6%; viability at 48 h, 10 ug/ml [22]: 95.3%; MIC [23]: > 1630 µM; MIC [24]: 3.2 µM; MIC [25]: 100 µM; viability at 72 h, 50 ug/ml [26]: 59.2%; viability at 48 h, 200 ug/ml [27]: 15.3%; MIC [28]: 100 µM; viability at 48 h, 100 ug/ml [29]: 70.8%; viability at 72 h, 10 ug/ml [30]: 94.6%; MIC [31]: 24 µM; MIC [32]: 12 µM; viability at 72 h, 100 ug/ml [33]: 59.7%; MIC [34]: 200 µM; viability at 72 h, 200 ug/ml [35]: 54.3%; viability at 72 h, 100 ug/ml [36]: 66.9%; IC50 [37]: ≥ 50 µg/mL; MIC [38]: 3.2 µM; viability at 48 h, 50 ug/ml [39]: 95.8%
3 | Cl.N=C(N)c1ccc(SCCOCCSc2ccc(C(=N)N)cc2)cc1 | 9.5% | 19.8% | 130 µM | 1070 µM | 130 µM | 7.4% | 77.1% | 130 µM | < 50 µg/mL | 56.4% | 4.3 µM | 1070 µM | 1070 µM | 270 µM | 50 µg/mL | 540 µM | < 50 µg/mL | 48.1% | 1070 µM | 2150 µM | viability at 72 h, 50 ug/ml [21]: 7.8%; viability at 48 h, 10 ug/ml [22]: 76.2%; MIC [23]: 2150 µM; MIC [24]: 4.3 µM; MIC [25]: 540 µM; viability at 72 h, 50 ug/ml [26]: 16.2%; viability at 48 h, 200 ug/ml [27]: 10.1%; MIC [28]: 270 µM; viability at 48 h, 100 ug/ml [29]: 10.3%; viability at 72 h, 10 ug/ml [30]: 65.3%; MIC [31]: 540 µM; MIC [32]: 130 µM; viability at 72 h, 100 ug/ml [33]: 8.2%; MIC [34]: 1070 µM; viability at 72 h, 200 ug/ml [35]: 7.9%; viability at 72 h, 100 ug/ml [36]: 7.4%; IC50 [37]: 10 µg/mL; MIC [38]: 130 µM; viability at 48 h, 50 ug/ml [39]: 10.4%
4 | Cl.c1cc(C2=NCCN2)ccc1OCCSCCOc1ccc(C2=NCCN2)cc1 | 16.5% | 52.6% | 1960 µM | 240 µM | 980 µM | 10.7% | 80.3% | 1960 µM | > 100 µg/mL | 59.1% | 9.8 µM | 240 µM | > 1960 µM | 29 µM | > 100 µg/mL | 980 µM | > 100 µg/mL | 63.6% | 980 µM | > 1960 µM | viability at 72 h, 50 ug/ml [21]: 68.1%; viability at 48 h, 10 ug/ml [22]: 76.9%; MIC [23]: > 1960 µM; MIC [24]: 9.8 µM; MIC [25]: 980 µM; viability at 72 h, 50 ug/ml [26]: 49%; viability at 48 h, 200 ug/ml [27]: 16.5%; MIC [28]: 1960 µM; viability at 48 h, 100 ug/ml [29]: 53.5%; viability at 72 h, 10 ug/ml [30]: 67.7%; MIC [31]: 980 µM; MIC [32]: 240 µM; viability at 72 h, 100 ug/ml [33]: 34.4%; MIC [34]: 1960 µM; viability at 72 h, 200 ug/ml [35]: 10.2%; viability at 72 h, 100 ug/ml [36]: 41.8%; IC50 [37]: ≥ 50 µg/mL; MIC [38]: 980 µM; viability at 48 h, 50 ug/ml [39]: 68.5%
